Activity calls are given as the source filed them. How the calls were made is not given here.
System: CCRIS mutagenicity, Ames/micronucleus/aberration tests
Experiment: CCRIS mutagenicity studies
Settings: Test System: AMES SALMONELLA TYPHIMURIUM
[1] = Strain/Indicator: TA98, Metabolic Activation: NONE, Method: PREINCUBATION
[2] = Strain/Indicator: TA98, Metabolic Activation: RAT, LIVER, S-9, PCB, Method: PREINCUBATION
[3] = Strain/Indicator: TA100, Metabolic Activation: NONE, Method: PREINCUBATION
[4] = Strain/Indicator: TA100, Metabolic Activation: RAT, LIVER, S-9, PCB, Method: PREINCUBATION

Nc1nc(-c2cccc([N+](=O)[O-])c2)nc2c1ncn2[C@@H]1O[C@H](CO)[C@@H](O)[C@H]1O
mutagenic call [1]: inactive; negative | mutagenic call [2]: inactive; negative | mutagenic call [3]: active; positive | mutagenic call [4]: active; positive

C#C[C@]1(OC(C)=O)CC[C@H]2[C@@H]3CCC4=CC(=O)CC[C@@H]4[C@H]3CC[C@@]21C
mutagenic call (Strain/Indicator: TA97A, Metabolic Activation: NONE, Method: HOST-MEDIATED): inactive; negative | mutagenic call (Strain/Indicator: TA97A, Metabolic Activation: NONE, Method: STANDARD PLATE): inactive; negative | mutagenic call (Strain/Indicator: TA97A, Metabolic Activation: RAT, LIVER, S-9, PHENOBARBITONE, Method: PREINCUBATION): inactive; negative | mutagenic call (Strain/Indicator: TA98, Metabolic Activation: MOUSE, LIVER, S-9, Method: STANDARD PLATE): inactive; negative | mutagenic call (Strain/Indicator: TA98, Metabolic Activation: NONE, Method: HOST-MEDIATED): inactive; negative | mutagenic call (Strain/Indicator: TA98, Metabolic Activation: NONE, Method: STANDARD PLATE): inactive; negative | mutagenic call (Strain/Indicator: TA98, Metabolic Activation: RAT, LIVER, S-9, AROCLOR 1254, Method: STANDARD PLATE): inactive; negative | mutagenic call (Strain/Indicator: TA98, Metabolic Activation: RAT, LIVER, S-9, PHENOBARBITONE, Method: PREINCUBATION): inactive; negative | mutagenic call (Strain/Indicator: TA100, Metabolic Activation: MOUSE, LIVER, S-9, Method: STANDARD PLATE): inactive; negative | mutagenic call (Strain/Indicator: TA100, Metabolic Activation: NONE, Method: HOST-MEDIATED): inactive; negative | mutagenic call (Strain/Indicator: TA100, Metabolic Activation: NONE, Method: STANDARD PLATE): inactive; negative | mutagenic call (Strain/Indicator: TA100, Metabolic Activation: RAT, LIVER, S-9, AROCLOR 1254, Method: STANDARD PLATE): inactive; negative | mutagenic call (Strain/Indicator: TA100, Metabolic Activation: RAT, LIVER, S-9, PHENOBARBITONE, Method: PREINCUBATION): inactive; negative | mutagenic call (Strain/Indicator: TA1535, Metabolic Activation: MOUSE, LIVER, S-9, Method: STANDARD PLATE): inactive; negative | mutagenic call (Strain/Indicator: TA1535, Metabolic Activation: NONE, Method: HOST-MEDIATED): inactive; negative | mutagenic call (Strain/Indicator: TA1535, Metabolic Activation: NONE, Method: STANDARD PLATE): inactive; negative | mutagenic call (Strain/Indicator: TA1535, Metabolic Activation: RAT, LIVER, S-9, AROCLOR 1254, Method: STANDARD PLATE): inactive; negative | mutagenic call (Strain/Indicator: TA1535, Metabolic Activation: RAT, LIVER, S-9, PHENOBARBITONE, Method: PREINCUBATION): inactive; negative | mutagenic call (Strain/Indicator: TA1537, Metabolic Activation: MOUSE, LIVER, S-9, Method: STANDARD PLATE): inactive; negative | mutagenic call (Strain/Indicator: TA1537, Metabolic Activation: NONE, Method: STANDARD PLATE): inactive; negative | mutagenic call (Strain/Indicator: TA1537, Metabolic Activation: RAT, LIVER, S-9, AROCLOR 1254, Method: STANDARD PLATE): inactive; negative | mutagenic call (Strain/Indicator: TA1538, Metabolic Activation: MOUSE, LIVER, S-9, Method: STANDARD PLATE): inactive; negative | mutagenic call (Strain/Indicator: TA1538, Metabolic Activation: NONE, Method: STANDARD PLATE): inactive; negative | mutagenic call (Strain/Indicator: TA1538, Metabolic Activation: RAT, LIVER, S-9, AROCLOR 1254, Method: STANDARD PLATE): inactive; negative

Oc1ccc2cc3c4ccccc4c4ccccc4c3cc2c1O
mutagenic call (Strain/Indicator: TA100, Metabolic Activation: RAT, LIVER, S-9, AROCLOR 1254, Method: PREINCUBATION): active; positive

Cc1ccc2c(c1)C(=O)c1cc(O)ccc1C2=O
mutagenic call [1]: inactive; negative | mutagenic call [2]: active; positive | mutagenic call [3]: active; positive | mutagenic call [4]: active; positive
